Source: patent US20100316655A1, “COMPOUNDS WITH MDR1-INVERSE ACTIVITY” (priority 2008, published 2010)

Tests used:
[1] = system: KB-3-1 adenocarcinoma cells; test: MTT cytotoxicity assay, parental P-gp-negative KB-3-1 cells; format: cell-based, human
Method: (§1) Exemplary compounds were also tested against the KB-V1 adenocarcinoma cell line that expresses high levels of P-gp (the protein product of MDR1). […] MDR1 selectivity is determined by the ratio of IC50 against KB-3-1 cells divided by its IC50 against KB-V1 cells.
(§2) This example describes evaluation of compounds using the MTT cytotoxicity assay. Cell survival was measured by the MTT (3-(4,5-dimethylthiazol-2-yl)-2,5-diphenyltetrazolium bromide) assay as previously described by Ludwig, J. A. et al. Selective toxicity of NSC73306 in MDR1-positive cells as a new strategy to circumvent multidrug resistance in cancer. […] Briefly, cells were seeded in […] of growth medium at a density of 5000 cells/well in 96-well plates and allowed to establish for 24 hours, at which time serially diluted drugs were added in an additional […] growth medium. Cells were then incubated for 72 hours at 37° C. in humidified 5% CO2, at which time the growth media was drawn, and replaced with MTT in IMDM growth media and incubated for 4 hours. The MTT solution was then drawn from the wells, and […] acidified ethanol solution was added to each well and after 15 minutes absorption at 560 nm was measured.

[2] = system: KB-V1 adenocarcinoma cell line; test: MTT cytotoxicity assay, P-gp (MDR1) expressing KB-V1 cells; MDR1 selectivity vs KB-3-1; format: cell-based, human; conditions: for IC50: MTT, 72 hours; for MDR1 select. / MDR1 selectivity: ratio of IC50 against KB-3-1 divided by IC50 against KB-V1; for MDR1 selectivity: >1 = MDR1-inverse activity; for MDR1-inverse selectivity (in words): Example 3, Table 1, KB-V1 vs KB-3-1
Method: as §1, §2

[3] = Table 2, 72 hours, unit inferred
[4] = Homo sapiens, Table 1, 72 hours, KB-3-1 (P-gp-negative)
[5] = Homo sapiens, Table 1, KB-V1 (high P-gp)

Row | SMILES | IC50 [1, 3] | IC50 ([2]; Table 2, unit inferred) | MDR1 select. ([2]; Table 2) | IC50 [1, 4] | IC50 [2, 5] | MDR1 selectivity ([2]; Table 1) | MDR1-inverse selectivity (in words) [2]
1 | COc1ccccc1NC(=S)NN=C1C(=O)Nc2ccccc21 [Compound M18, 1-isatin-4-(2′-methoxyphenyl)-3-thiosemicarbazone] | 4.96 µM | 2.69 µM | 1.84 | – | – | – | –
2 | COc1ccc(NC(=S)N/N=C2\C(=O)N(C)c3ccccc32)cc1 [drawing 35] | – | – | – | 19.6 ± 1.7 µM | 9.3 ± 2.8 µM | 2.1 | –
3 | O=C1Nc2ccccc2C1=NNC(=S)Nc1ccc(C(F)(F)F)cc1 [Compound M9, 1-Isatin-4-(4′-(trifluoromethyl)phenyl)-3-thiosemicarbazone] | 8.59 µM | 2.1 µM | 4.09 | – | – | – | –
4 | C=CCNC(=S)N/N=C1\C(=O)Nc2ccccc21 [Compound 13, 1-Isatin-4-allyl-3-thiosemicarbazone] | – | – | – | – | – | – | MDR1-inverse selectivity
5 | COc1cc(NC(=S)NN=C2C(=O)Nc3ccccc32)cc(OC)c1OC [Compound M23, 1-isatin-4-(3′,4′,5′-trimethoxyphenyl)-3-thiosemicarbazone] | 11.1 µM | 3.49 µM | 3.18 | – | – | – | –
6 | COc1ccc(NC(=S)N/N=C/c2ccccn2)cc1 [drawing 37] | – | – | – | 3.4 ± 1.5 µM | 2.4 ± 0.5 µM | 1.4 | –
7 | O=C1Nc2ccccc2C1=NNC(=S)Nc1cccc2ccccc12 [Compound M20, 1-isatin-4-(1′-napthyl)-3-thiosemicarbazone] | 5.12 µM | 2.21 µM | 2.32 | – | – | – | –
8 | Cc1cnc(/C=N/NC(N)=S)c2cccc(N)c12 | – | – | – | 1.9 ± 0.8 µM | 2.1 ± 0.3 µM | 0.9 | –
9 | O=C1Nc2ccccc2C1=NNC(=S)NC1CCCCC1 [Compound M2, 1-Isatin 4-cyclohexyl-3-thiosemicarbazone] | 9.14 µM | 4.38 µM | 2.09 | – | – | – | –
10 | CCCCNC(=S)NN=C1C(=O)Nc2ccccc21 [Compound M11, 1-Isatin-4-butyl-3-thiosemicarbazone] | 10.9 µM | 5.69 µM | 1.91 | – | – | – | –
11 | O=C1Nc2ccccc2C1=NNC(=S)Nc1ccccc1 [Compound M8, 1-Isatin-(phenyl)-3-thiosemicarbazone] | 3.53 µM | 1.47 µM | 2.40 | – | – | – | –
12 | COc1ccc(NC(=S)N/N=C2\C(=O)Nc3ccc(S(=O)(=O)O)cc32)cc1 | – | – | – | > 50 µM | > 50 µM | – | –
13 | CNC(=S)NN=C1C(=O)Nc2ccccc21 [Compound M1, 1-Isatin-4-methyl-3-thiosemicarbazone] | 35.3 µM | 19.4 µM | 1.82 | – | – | – | –
14 | O=C1Nc2ccc(Br)cc2/C1=N/NC(=S)Nc1ccc(F)cc1 [drawing 22] | – | – | – | 13.1 ± 4.8 µM | 5.8 ± 2.5 µM | 2.3 | –
15 | COc1ccc(NC(=O)N/N=C2\C(=O)Nc3ccccc32)cc1 | – | – | – | 27.7 ± 3.3 µM | > 50 µM | – | –
16 | CC(=O)Nc1ccc(/C=N/NC(N)=S)cc1 | – | – | – | > 50 µM | > 50 µM | – | –
17 | O=C1Nc2ccccc2C1=NNC(=S)Nc1ccc(O)cc1 [Compound M4, 1-Isatin-(4′-hydroxyphenyl)-3-thiosemicarbazone] | 35.8 µM | 21.6 µM | 1.66 | – | – | – | –
18 | COc1ccc(NC(=S)N/N=C2\C(=O)Nc3ccc([N+](=O)[O-])cc32)cc1 [drawing 39] | – | – | – | 26.3 ± 5.5 µM | 6.7 ± 2.9 µM | 4.0 | –
19 | O=C1Nc2ccccc2C1=NNC(=S)Nc1cccc(Cl)c1 [Compound M7, 1-Isatin-(3′-chlorophenyl)-3-thiosemicarbazone] | 1.87 µM | 0.64 µM | 2.92 | – | – | – | –
20 | O=C1Nc2ccccc2C1=NNC(=S)NC12CC3CC(CC(C3)C1)C2 [Compound M22, 1-isatin-4-(1′-adamantyl)-3-thiosemicarbazone] | 3.16 µM | 1.02 µM | 3.09 | – | – | – | –
21 | O=C1Nc2ccccc2C1=NNC(=S)Nc1ccc(C(=O)O)cc1 [Compound M19, 1-isatin-4-(4′-carboxyphenyl)-3-thiosemicarbazone] | > 50 µM | > 50 µM | 1.00 | – | – | – | –
22 | COc1ccc(NC(=S)NN=C2C(=O)Nc3ccccc32)cc1 [NSC73306, 1-Isatin-4-(4′ methoxyphenyl)thiosemicarbazone, reference compound] | 14.2 µM | 3.3 µM | 4.3 | – | – | – | MDR1-inverse selectivity
23 | O=C1Nc2ccccc2C1=O | – | – | – | > 50 µM | > 50 µM | – | –
